Values quoted from earlier work as cited in patent US20250295594A1, “ENTERAL SUSTAINED-RELEASE SUGAR ALCOHOL ADDITIVE AND PREPARATION METHOD AND APPLICATION THEREOF” (ZHEJIANG HUAKANG PHARMACEUTICAL CO., LTD., priority 2020, published 2025).

Conditions: existing experimental data, unformulated sugar / sugar alcohol

Compound	absorption rate of the small intestine [%]
O=C[C@H](O)[C@@H](O)[C@@H](O)CO [arabinose, L-arabinose]	70
OC[C@@H](O)[C@H](O)[C@@H](O)CO [xylitol]	60
